Experimental data: PubChem BioAssay AID1033 (Sanford-Burnham Center for Chemical Genomics, 2008)
pKd: −log10 of the molar value. Activity calls are given as the source filed them. No rule for the calls is given here. Residues, ends and D or L forms follow the SMILES beside them.

target: Chaperone protein DnaK (Escherichia coli (strain K12)) (UniProt P0A6Y8); assay: binders of DnaK substrate-binding domain, biophysical, NMR, chaperone (AID 1033); details: Purified DnaK SBD, NMR ligand binding
Sequence (P0A6Y8 whole entry, looked up, the tested form may be a part): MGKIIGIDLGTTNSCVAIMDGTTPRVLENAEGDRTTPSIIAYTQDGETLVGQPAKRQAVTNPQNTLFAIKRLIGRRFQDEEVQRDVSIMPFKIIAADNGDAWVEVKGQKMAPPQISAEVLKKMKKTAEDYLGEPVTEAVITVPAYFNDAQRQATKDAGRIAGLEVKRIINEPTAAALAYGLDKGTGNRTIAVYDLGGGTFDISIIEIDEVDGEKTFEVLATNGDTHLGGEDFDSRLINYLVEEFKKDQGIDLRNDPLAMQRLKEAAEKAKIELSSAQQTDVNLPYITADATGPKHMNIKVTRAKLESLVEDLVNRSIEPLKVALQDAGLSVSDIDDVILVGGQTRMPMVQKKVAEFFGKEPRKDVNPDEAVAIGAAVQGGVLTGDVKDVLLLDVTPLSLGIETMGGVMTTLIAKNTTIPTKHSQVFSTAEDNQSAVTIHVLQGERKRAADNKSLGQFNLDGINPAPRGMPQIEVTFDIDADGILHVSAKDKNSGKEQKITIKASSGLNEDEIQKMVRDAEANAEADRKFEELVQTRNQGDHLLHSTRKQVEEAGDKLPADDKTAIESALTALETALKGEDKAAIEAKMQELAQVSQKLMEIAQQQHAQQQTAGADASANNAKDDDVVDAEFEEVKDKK

Row | SMILES | Kd | pKd
1 | O=C(Nc1ccc(N2CCCC2=O)cc1)c1cccc(F)c1 | > 4 mM (inactive) | –
2 | Cc1nnc(SCC(=O)NC2CCCC2)[nH]c1=O | > 4 mM (inactive) | –
3 | CC(=O)N[C@@H](CC(=O)O)C(=O)N[C@@H](CCC(=O)O)C(=O)O (Ac-Asp-Glu-OH) | > 4 mM (inactive) | –
4 | O=C(CC1NC(=O)NC1=O)Nc1ccccc1 (stereo not given) | > 4 mM (inactive) | –
5 | COc1cccc(C(=O)Nc2c(C)n[nH]c2C)c1 | > 4 mM (inactive) | –
6 | NCC(O)c1ccc(O)cc1 (stereo not given) | > 4 mM (inactive) | –
7 | Cn1c2c(c(=O)n(C)c1=O)CN(Cc1ccco1)CN2 | > 4 mM (inactive) | –
8 | CCOc1ccc(C)cc1S(=O)(=O)n1ccnc1 | > 4 mM (inactive) | –
9 | CCCCCC1C(=O)CCC1CC(=O)OC (stereo not given) | > 4 mM (inactive) | –
10 | COc1cc([C@@H]2c3cc4c(cc3[C@H](OC(C)=O)[C@H]3COC(=O)[C@@H]23)OCO4)cc(OC)c1OC | > 4 mM (inactive) | –
11 | O=C(O)c1ccc(CN2CCCCC2)o1 | > 4 mM (inactive) | –
12 | CC(C)=CC(=O)Nc1ccc(S(N)(=O)=O)cc1 | > 4 mM (inactive) | –
13 | c1ccc(-c2n[nH]c(-c3ccccn3)n2)nc1 | > 4 mM (inactive) | –
14 | COC(=O)[C@]1(C)CC[C@]2(C)CC[C@]3(C)C4=CC=C5C(=CC(=O)C(O)=C5C)[C@]4(C)CC[C@@]3(C)[C@@H]2C1 | > 4 mM (inactive) | –
15 | CC1=C(C(=O)Nc2ccccc2)SCCO1 | > 4 mM (inactive) | –
16 | COc1ccc(NC(=O)CSc2nccc(=O)[nH]2)cc1 | > 4 mM (inactive) | –
17 | NC(=O)CSc1ccc2nnc(-c3cccs3)n2n1 | > 4 mM (inactive) | –
18 | NC(=O)c1sc2ccccc2c1Cl | > 4 mM (inactive) | –
19 | Cn1cnc([N+](=O)[O-])c1Sc1ncnc2nc[nH]c12 | > 4 mM (inactive) | –
20 | COc1c2occc2c(OC)c2c(=O)cc(C)oc12 | > 4 mM (inactive) | –
21 | COc1ccc(C(C)=O)c(O)c1 | > 4 mM (inactive) | –
22 | Nc1csc(C(=O)O)c1 | > 4 mM (inactive) | –
23 | CCOC12NC(=O)CC(=O)N1C(c1ccccc1)=CS2 (stereo not given) | > 4 mM (inactive) | –
24 | CC(=O)OC1CCC2(O)CC1(C)CCC1C2CC1(C)C (stereo not given) | > 4 mM (inactive) | –

Row | SMILES | Kd | pKd
25 | NCc1ccc(S(=O)(=O)O)cc1 | > 4 mM (inactive) | –
26 | CC(=O)NC12CC3CC(CC(O)(C3)C1)C2 | > 4 mM (inactive) | –
27 | Cn1cccc1C(=S)N1CCOCC1 | > 4 mM (inactive) | –
28 | Cc1sc2nc(-c3ccco3)oc(=O)c2c1C | > 4 mM (inactive) | –
29 | CC(C)CC(=O)NC1CCSC1=O (stereo not given) | > 4 mM (inactive) | –
30 | O=C1CCC(c2cccs2)=NN1 | > 4 mM (inactive) | –
31 | COc1ccc(C)cc1S(=O)(=O)NC1CCCC1 | > 4 mM (inactive) | –
32 | NCc1cccc2c1OCCCO2 | > 4 mM (inactive) | –
33 | Cc1cc(C)c2ccc[n+]([O-])c2c1O | > 4 mM (inactive) | –
34 | NC(=O)C1CCN(CN2C(=O)c3ccccc3C2=O)CC1 | > 4 mM (inactive) | –
35 | Cc1ccc(SCc2nc(-c3ccncc3)no2)cc1 | > 4 mM (inactive) | –
36 | CC(=O)Nc1cnn(-c2ccccc2)c(=O)c1Cl | > 4 mM (inactive) | –
37 | CCC1(CC)C(=O)N=C(N)NC1=O | > 4 mM (inactive) | –
38 | O=C(Nc1nnc(-c2cccnc2)o1)c1ccccc1F | > 4 mM (inactive) | –
39 | NC(CSCSCC(N)C(=O)O)C(=O)O (stereo not given) | > 4 mM (inactive) | –
40 | COc1ccc2c(c1)OC1(O)COc3cc(OC)c(OC)cc3C1=C2 (stereo not given) | > 4 mM (inactive) | –
41 | O=C(COc1ccccc1)N1CCc2ccccc2C1 | > 4 mM (inactive) | –
42 | C/C1=C/CC(C)(C)/C=C/C/C(C)=C/CC1 | > 4 mM (inactive) | –
43 | Cc1cc(O)cc(=O)o1 | > 4 mM (inactive) | –
44 | NC1=NC(=O)/C(=C/c2ccccc2[N+](=O)[O-])S1 | > 4 mM (inactive) | –
45 | C/C(O)=c1/sc2cc(C)nc(=N)n2c1=O | > 4 mM (inactive) | –
46 | COc1cc(C)c2c(c1C=O)Oc1c(c(C)c(O)c3c1C(O)OC3=O)OC2=O (stereo not given) | > 4 mM (inactive) | –
47 | O=C(c1ccncc1)N1CCN(C(=O)c2ccco2)CC1 | > 4 mM (inactive) | –
48 | Cc1ccc2nc(NC(=O)CN3CCOCC3)sc2c1 | > 4 mM (inactive) | –

Row | SMILES | Kd | pKd
49 | C=C1CCC2[C@](C)(CO)[C@H](O)CC[C@@]2(C)[C@@H]1C/C=C1/C(=O)OC[C@H]1O (stereo not given in full) | > 4 mM (inactive) | –
50 | Cc1nn2c(=O)/c(=C/c3cccc(F)c3)sc2nc1=O | > 4 mM (inactive) | –
51 | O=C(Nc1ccc2c(c1)OCO2)c1ccc(=O)[nH]n1 | > 4 mM (inactive) | –
52 | COc1ccc(-c2c(C)n([O-])c(C)c(C)[n+]2=O)cc1 | > 4 mM (inactive) | –
53 | COc1ccc(/C=C2/C(=O)N=C(N)N2C)cc1OC | > 4 mM (inactive) | –
54 | O=c1ccc2cc(O)c(O)cc2o1 | > 4 mM (inactive) | –
55 | O=C1CCC(=O)N1CN1CCOCC1 | > 4 mM (inactive) | –
56 | O=c1[nH]nnc2sc3c(c12)CCCC3 | > 4 mM (inactive) | –
57 | COn1c(=O)c(-c2ccco2)[n+]([O-])c2ccccc21 | > 4 mM (inactive) | –
58 | CC(=O)N1CCN(C2CCSC2)CC1 (stereo not given) | > 4 mM (inactive) | –
59 | O=C(Nc1ncccn1)c1cccc(F)c1 | > 4 mM (inactive) | –
60 | C[C@@H]1CCC2[C@](C)(CO)[C@@H](O)CC[C@]2(C)[C@@]12CC[C@@](CO)(CCO)O2 (stereo not given in full) | > 4 mM (inactive) | –
61 | Cc1cc(C)n(CC(=O)O)n1 | > 4 mM (inactive) | –
62 | CC(=O)Nc1cccs1 | > 4 mM (inactive) | –
63 | COC(CC(=O)O)c1nc2ccccc2s1 (stereo not given) | > 4 mM (inactive) | –
64 | O=c1[nH]c(=O)c2[nH]cnc2[nH]1 | > 4 mM (inactive) | –
65 | NC(=O)c1ccccc1NC(=O)C1CCCO1 (stereo not given) | > 4 mM (inactive) | –
66 | COC1C(O)C(O)C(O)[C@@H](O)C1O (stereo not given in full) | > 4 mM (inactive) | –
67 | O=C(O)CNC(=O)c1ccccc1 | > 4 mM (inactive) | –
68 | Cn1nc(C(=O)NC2CCCCC2)c2ccccc2c1=O | > 4 mM (inactive) | –
69 | O=C(O)CC1NCCNC1=O (stereo not given) | > 4 mM (inactive) | –
70 | COc1ccc(CN2CCNC(=O)C2CC(=O)O)cc1C (stereo not given) | > 4 mM (inactive) | –
71 | Cn1ccnc1SCc1cc(=O)[nH]c2ccccc12 | > 4 mM (inactive) | –
72 | CCOc1cc(C)c(Cl)cc1S(=O)(=O)N(C)C | > 4 mM (inactive) | –

Row | SMILES | Kd | pKd
73 | CCCn1cnc2sc(C(N)=O)c(C)c2c1=O | > 4 mM (inactive) | –
74 | Nc1ccc2[nH]ccc2c1 | > 4 mM (inactive) | –
75 | CC1(NC(=O)NCc2ccccc2)CCS(=O)(=O)C1 (stereo not given) | > 4 mM (inactive) | –
76 | CCOc1ccc2nc(NS(C)(=O)=O)sc2c1 | > 4 mM (inactive) | –
77 | CN(C)CC(O)C1CCOC(C)(C)C1 (stereo not given) | > 4 mM (inactive) | –
78 | O=C1CCC([N+](=O)[O-])C(c2ccccc2F)N1 (stereo not given) | > 4 mM (inactive) | –
79 | CC1(C)Oc2ccc(N)cc2O1 | > 4 mM (inactive) | –
80 | CN1CCCn2c1nc1c2c(=O)[nH]c(=O)n1C | > 4 mM (inactive) | –
81 | OC1(c2ccc(Cl)cc2)CCNCC1 | > 4 mM (inactive) | –
82 | CC(=O)NC(=S)Nc1nc2ccccc2n1C(C)=O | > 4 mM (inactive) | –
83 | c1coc(CNc2nc(-c3ccncc3)cs2)c1 | > 4 mM (inactive) | –
84 | O=C(Nc1ccccc1)N1CCOCC1 | > 4 mM (inactive) | –
85 | CC(=O)O[C@H]1CC[C@@]2(C)C(CC[C@]3(C)C2CC=C2C4CC(C)(C)CC[C@]4(C)CC[C@]23C)C1(C)C (stereo not given in full) | > 4 mM (inactive) | –
86 | O=C(O)c1cncc(-c2cccs2)c1 | > 4 mM (inactive) | –
87 | Nc1cccc2nsnc12 | > 4 mM (inactive) | –
88 | NC(=O)CSc1ccc(-c2ccccc2)nn1 | > 4 mM (inactive) | –
89 | COc1ccc(-c2noc(-c3ccco3)n2)cc1OC | > 4 mM (inactive) | –
90 | O=C(NCCO)c1cc2ccccc2cc1O | > 4 mM (inactive) | –
91 | NCc1ccc2occc2c1 | > 4 mM (inactive) | –
92 | O=c1c(O)c(-c2ccccc2)oc2cc(O)ccc12 | > 4 mM (inactive) | –
93 | c1ccc2c(c1)ncn2CCn1cnc2ccccc21 | > 4 mM (inactive) | –
94 | CCOC(=O)c1cc2ccccc2oc1=O | > 4 mM (inactive) | –
95 | O=C(O)Cn1cc(C(=O)C2CC2)c2ccccc21 | > 4 mM (inactive) | –
96 | COc1ccc(Cc2nnc3c4cnn(C)c4ncn23)cc1 | > 4 mM (inactive) | –

Row | SMILES | Kd | pKd
97 | Cn1c(=O)c2c(ncn2C)n(C)c1=O | > 4 mM (inactive) | –
98 | Cc1ccc(C(=O)N2CCC(C(=O)O)CC2)cc1 | > 4 mM (inactive) | –
99 | O=C(NCc1ccccc1Br)c1cccs1 | – | > 3.70
100 | Cc1cc(C(F)(F)F)nn1CC(N)=O | > 4 mM (inactive) | –
101 | Cc1occc1C(=O)NCc1ccccc1F | > 4 mM (inactive) | –
102 | Nc1cccc(-n2cccc2)c1 | > 4 mM (inactive) | –
103 | CN(C(=O)NC1CCS(=O)(=O)C1)C1CCCCC1 (stereo not given) | > 4 mM (inactive) | –
104 | CNc1nc(OC)nc(N2CCOCC2)n1 | > 4 mM (inactive) | –
105 | O=C(Nc1ccccc1C(F)(F)F)N1CCCCCC1 | > 4 mM (inactive) | –
106 | Cn1c(CN2CC(c3ccccc3)CC2=O)n[nH]c1=S (stereo not given) | > 4 mM (inactive) | –
107 | NC12CC3CC(C1)CC(O)(C3)C2 | > 4 mM (inactive) | –
108 | CC1=C2C(O)C(=O)OC3CC4C(C)(C)C(=O)C=C[C@]4(C)C(CC1)[C@]23C (stereo not given in full) | > 4 mM (inactive) | –
109 | COC1=CC23CCCN2CCc2cc4c(cc2C3C1O)OCO4 (stereo not given) | > 4 mM (inactive) | –
110 | O=C(O)/C=C/C(=O)Nc1ccccc1C(F)(F)F | > 4 mM (inactive) | –
111 | CSc1nnc2c(n1)OC(C)=Nc1ccccc1-2 | > 4 mM (inactive) | –
112 | COc1cc2c(cc1OC)[C@@]13CCN4CC5=CCOC6CC(=O)N2C1[C@H]6[C@H]5C[C@H]43 (stereo not given in full) | > 4 mM (inactive) | –
113 | CC(C)(C)c1cc(N)n[nH]1 | > 4 mM (inactive) | –
114 | O=c1ccc2nc3ccccc3c(=O)n2[nH]1 | > 4 mM (inactive) | –
115 | C=CC1=C(C)/C(=C/c2[nH]c(Cc3[nH]c(/C=C4\NC(=O)C(C)=C4C=C)c(C)c3CCC(=O)O)c(CCC(=O)O)c2C)NC1=O | > 4 mM (inactive) | –
116 | Oc1cc(O)c2c(c1)O[C@H](c1ccc(O)c(O)c1)[C@H](O)C2 | > 4 mM (inactive) | –
117 | CN1CCCCC1c1ccc(-c2cccnc2)nc1 (stereo not given) | > 4 mM (inactive) | –
118 | NC(N)=NCCCCN=C(N)N | > 4 mM (inactive) | –
119 | CC1(C)C=Cc2cc3ccc(=O)oc3cc2O1 | > 4 mM (inactive) | –
120 | Cc1cc(C)n(-c2nc(N)cc(=O)[nH]2)n1 | > 4 mM (inactive) | –
